{"source": "patent US9937139B2", "about": "(priority 2014, dated 2018)", "key": {"B16 melanoma cells": {"tested_on": "B16 melanoma cells", "experiment": "In vivo tumor growth suppression, B16 efficacy model", "settings": "C57BL/6 mice, s.c. B16 melanoma, IP daily for 12 days; test compound 5 mg/kg and 10 mg/kg (dose of tabulated value not stated), melphalan 2.5 mg/kg"}, "[1]": {"tested_on": "LLCPK cells conditionally expressing hLAT1", "experiment": "LAT1-specific in vitro cytotoxicity, modified clonigenic assay", "format": "cell-based", "settings": "3 μM test compound for 30 min, then 7-10 days proliferation; induced (LAT1+) vs non-induced"}}}
{"smiles": "Cc1ccc(N(CCCl)CCCl)cc1C(C)(CN)CC(=O)O", "note": "(centres unmarked) [Example 5, 4-Amino-3-[5-[bis(2-chloroethyl)amino]-2-methyl-phenyl]-3-methyl-butanoic acid]", "values": [{"measurement": "Tumor Growth (% Control) 5 days post-dosing", "setting": "B16 melanoma cells", "result": 14, "unit": "% Control"}, {"measurement": "Tumor Growth (% Control) End of dosing", "setting": "B16 melanoma cells", "result": 13, "unit": "% Control"}]}
{"smiles": "Cc1c(N(CCCl)CCCl)cccc1C(C)(CN)CC(=O)O", "note": "(centres unmarked) [Example 6, 4-Amino-3-[3-[bis(2-chloroethyl)amino]-2-methyl-phenyl]-3-methyl-butanoic acid]", "values": [{"measurement": "percent surviving cells in cells expressing LAT1 compared to cells not expressing LAT1", "setting": "[1]", "result": "about the same"}]}
{"smiles": "Cc1cc(N(CCCl)CCCl)ccc1C(C)(CN)CC(=O)O", "note": "(centres unmarked) [Example 7, 4-Amino-3-[4-[bis(2-chloroethyl)amino]-2-methyl-phenyl]-3-methyl-butanoic acid]", "values": [{"measurement": "Tumor Growth (% Control) 5 days post-dosing", "setting": "B16 melanoma cells", "result": 50, "unit": "% Control"}, {"measurement": "Tumor Growth (% Control) End of dosing", "setting": "B16 melanoma cells", "result": 38, "unit": "% Control"}]}
{"smiles": "N[C@@H](Cc1ccc(N(CCCl)CCCl)cc1)C(=O)O", "note": "[Melphalan, melphalan, reference compound]", "values": [{"measurement": "percent surviving cells in cells expressing LAT1 compared to cells not expressing LAT1", "setting": "[1]", "result": "about the same"}, {"measurement": "Tumor Growth (% Control) 5 days post-dosing", "setting": "B16 melanoma cells", "result": 56, "unit": "% Control"}, {"measurement": "Tumor Growth (% Control) End of dosing", "setting": "B16 melanoma cells", "result": 33, "unit": "% Control"}]}
